Structures are written as SMILES.

The test system of the test is Pyricularia grisea. The test is described as follows: Antifungal activity against Magnaporthe grisea infected rice plant assessed as logarithm of fungal control value at 100 ppm after 5 days. Type of test: functional.
Take `CCc1ccc(NC(=O)Cc2cs/c(=N\c3ccc(OC)cc3C)n2C)cc1`: the Activity stood at 2.
In the case of `COc1ccc(NC(=O)Cc2cs/c(=N\c3ccc(F)c(Cl)c3)n2C)cc1` it was 1.98.
In the case of `CCc1ccc(NC(=O)Cc2cs/c(=N\c3cccc([N+](=O)[O-])c3)n2C)cc1` it was 1.99; in that of `CCCCOc1ccc(NC(=O)Cc2cs/c(=N\c3cccc(F)c3)n2C)cc1`, 1.
For `Cc1ccc(/N=c2\scc(CC(=O)Nc3ccc(OC(F)(F)F)cc3)n2C)c(C)c1`, the Activity was determined as 1.23.
As for `CCc1ccc(NC(=O)Cc2cs/c(=N\c3cccc(Cl)c3C)n2C)cc1`, the Activity was 1.95.
As to `CCc1ccc(NC(=O)Cc2cs/c(=N/c3ccc(OC(F)(F)F)cc3)n2C)cc1` (stereo in doubt; 5), the Activity was determined as 1.99.
On to `Cn1c(CC(=O)Nc2ccc(Cl)cc2)cs/c1=N\c1cccc(F)c1`, for which the Activity was found to be 1.96.
In the case of `Cn1c(CC(=O)Nc2ccc(Cl)cc2)cs/c1=N\c1cccc(Br)c1` it was 1.98; in that of `Cc1ccc(NC(=O)Cc2cs/c(=N\c3ccccc3F)n2C)cc1`, 1.94; in that of `COc1ccc(NC(=O)Cc2cs/c(=N\c3cccc(F)c3)n2C)cc1`, 1.97.
For the compound `CCc1ccc(NC(=O)Cc2cs/c(=N\c3ccc(C)cc3Cl)n2C)cc1`, the Activity came to 2.
On to `COc1ccc(NC(=O)Cc2cs/c(=N\c3ccccc3C(C)C)n2C)cc1`, for which the Activity was found to be 1.9.
Consider `COc1ccc(NC(=O)Cc2cs/c(=N\c3ccccc3Br)n2C)cc1`, for which the Activity turned out to be 1.92.
As to `CCc1ccc(/N=c2\scc(CC(=O)Nc3ccc(OC)cc3)n2C)cc1`, the Activity was found to be 1.98.
Consider `COc1ccc(NC(=O)Cc2cs/c(=N/c3ccc(OC(F)(F)F)cc3)n2C)cc1`, for which the Activity amounted to 1.99.
As for `CCOc1ccc(NC(=O)Cc2cs/c(=N\c3ccc(F)cc3F)n2C)cc1`, the Activity stood at 1.9.
Take `CC(C)c1ccc(NC(=O)Cc2cs/c(=N/c3ccc(C(F)(F)F)cc3)n2C)cc1`: the Activity was found to be 1.8.
As to `CCCCCCc1ccc(/N=c2/scc(CC(=O)Nc3ccc(CC)cc3)n2C)cc1`, the Activity came out at 2.
For `CCc1ccc(NC(=O)Cc2cs/c(=N/c3ccc(Oc4ccccc4)cc3)n2C)cc1`, the Activity is listed as 1.98.
Turning to `COc1ccc(NC(=O)Cc2cs/c(=N\c3ccc(C)cc3C)n2C)cc1`, the Activity was found to be 1.96.
In the case of `COc1ccc(NC(=O)Cc2cs/c(=N\c3ccc(Cl)c(C(F)(F)F)c3)n2C)cc1`, the Activity came out at 2.
In the case of `CCc1ccc(NC(=O)Cc2cs/c(=N\c3ccc(F)c(Cl)c3)n2C)cc1`, the Activity stood at 1.98.
In the case of `CCc1ccc(NC(=O)Cc2cs/c(=N/c3ccc(Cl)cc3)n2C)cc1` it was 2.
For the compound `Cc1ccc(NC(=O)Cc2cs/c(=N/c3ccc(Br)cc3)n2C)cc1`, the Activity is recorded as 1.94.
Turning to `Cn1c(CC(=O)Nc2ccc([N+](=O)[O-])cc2)cs/c1=N\c1ccc(F)cc1F`, the Activity is listed as 1.23.
`COc1cccc(/N=c2\scc(CC(=O)Nc3ccc(Cl)cc3)n2C)c1`: the Activity is listed as 1.76.
The figure for `Cn1c(CC(=O)Nc2ccc(Cl)cc2)cs/c1=N\c1ccc(Oc2ccccc2)cc1` is 1.92; for `Cn1c(CC(=O)Nc2ccc(OC(F)(F)F)cc2)cs/c1=N\c1cccc(F)c1` it is 1.62; for `COc1ccc(NC(=O)Cc2cs/c(=N\c3cccc(C)c3)n2C)cc1` it is 1.98.
Turning to `Cn1c(CC(=O)Nc2ccc([N+](=O)[O-])cc2)cs/c1=N\c1cccc(F)c1`, the Activity was found to be 1.23.
In the case of `CCOc1ccc(NC(=O)Cc2cs/c(=N\c3cccc(Br)c3)n2C)cc1`, the Activity was found to be 1.91.
`Cn1c(CC(=O)Nc2ccc(Oc3ccccc3)cc2)cs/c1=N/c1ccc(Oc2ccccc2)cc1`: the Activity worked out at 1.4.
The figure for `Cn1c(CC(=O)Nc2ccc(C(F)F)cc2)cs/c1=N\c1ccc(Cl)cc1` is 1.52; for `COc1ccc(NC(=O)Cc2cs/c(=N\c3cccc(C(F)(F)F)c3)n2C)cc1` it is 2; for `CCc1ccc(NC(=O)Cc2cs/c(=N\c3ccc(C#N)c(Cl)c3)n2C)cc1` it is 1.98.
In the case of `COc1ccc(NC(=O)Cc2cs/c(=N/c3ccc(SC)cc3)n2C)cc1` it was 1.96; in that of `CCc1ccc(NC(=O)Cc2cs/c(=N/c3ccc(OC(F)(F)F)cc3)n2C)cc1` (stereo in doubt; 8), 1.93; in that of `CCc1ccc(NC(=O)Cc2cs/c(=N/c3ccc(C(C)=O)cc3)n2C)cc1`, 2.
On to `COc1ccc(NC(=O)Cc2cs/c(=N\c3ccccc3F)n2C)cc1`, for which the Activity was determined as 1.99.
As for `COc1ccc(NC(=O)Cc2cs/c(=N\c3ccc(F)cc3F)n2C)cc1`, the Activity is recorded as 1.97.
The figure for `CCc1ccc(NC(=O)Cc2cs/c(=N\c3ccc(Br)c(C)c3)n2C)cc1` is 1.98; for `Cn1c(CC(=O)Nc2ccc(C(F)F)cc2)cs/c1=N\c1ccc(Br)cc1` it is 1.4.
For the compound `Cn1c(CC(=O)Nc2ccc(Cl)cc2)cs/c1=N\c1ccc(F)c(Cl)c1`, the Activity came to 1.98.
As for `Cn1c(CC(=O)Nc2ccc(Cl)cc2)cs/c1=N\c1ccc(-c2ccccc2)cc1`, the Activity is recorded as 1.98.
`CCOc1ccc(NC(=O)Cc2cs/c(=N\c3ccc(F)c(Cl)c3)n2C)cc1`: the Activity is listed as 1.94.
As for `Cn1c(CC(=O)Nc2ccc(OC(F)(F)F)cc2)cs/c1=N\c1cccc(C(F)(F)F)c1`, the Activity was 1.7.
Consider `COc1ccc(NC(=O)Cc2cs/c(=N\c3cccc(Br)c3)n2C)cc1`, for which the Activity turned out to be 1.99.
The figure for `COc1ccc(NC(=O)Cc2cs/c(=N/c3ccc(Cl)cc3)n2C)cc1` is 1.97; for `COc1ccccc1/N=c1\scc(CC(=O)Nc2ccc(OC(F)(F)F)cc2)n1C` it is 0.7; for `CCCCc1ccc(/N=c2\scc(CC(=O)Nc3ccc(Cl)cc3)n2C)cc1` it is 1.97.
In the case of `COc1ccc(/N=c2\scc(CC(=O)Nc3ccc(C(F)F)cc3)n2C)cc1` it was 1.4; in that of `Cn1c(CC(=O)Nc2ccc(Br)cc2)cs/c1=N\c1cccc(F)c1`, 1.9; in that of `Cn1c(CC(=O)Nc2ccc([N+](=O)[O-])cc2)cs/c1=N/c1ccc(F)cc1`, 0.9.
In the case of `Cn1c(CC(=O)Nc2ccc(Oc3ccccc3)cc2)cs/c1=N\c1ccc(F)cc1F`, the Activity is on record as 1.23.
The figure for `Cn1c(CC(=O)Nc2ccc(OC(F)(F)F)cc2)cs/c1=N\c1ccc(F)cc1` is 0.9; for `CCCCc1ccc(/N=c2/scc(CC(=O)Nc3ccc(OC)cc3)n2C)cc1` it is 1.98.
The figure for `CC(C)Oc1ccc(/N=c2/scc(CC(=O)Nc3ccc(C(F)F)cc3)n2C)cc1` is 1.7; for `CCc1ccc(NC(=O)Cc2cs/c(=N/c3ccc(I)cc3)n2C)cc1` it is 1.97.
In the case of `COc1ccc(/N=c2/scc(CC(=O)Nc3ccc(OC(F)(F)F)cc3)n2C)cc1` it was 1.4; in that of `COc1ccc(NC(=O)Cc2cs/c(=N/c3ccc([N+](=O)[O-])cc3)n2C)cc1`, 2; in that of `CCCCc1ccc(NC(=O)Cc2cs/c(=N\c3ccc(F)c(Cl)c3)n2C)cc1`, 1.3.
As for `CCc1ccc(NC(=O)Cc2cs/c(=N\c3ccc(Cl)cc3F)n2C)cc1`, the Activity is 1.99.
Turning to `CCc1ccc(NC(=O)Cc2cs/c(=N\c3ccc(Cl)cc3Cl)n2C)cc1`, the Activity is 1.96.
Consider `COc1ccc(NC(=O)Cc2cs/c(=N\c3cccc([N+](=O)[O-])c3)n2C)cc1`, for which the Activity was determined as 1.99.
On to `CCc1ccc(NC(=O)Cc2cs/c(=N\c3ccccc3F)n2C)cc1`, for which the Activity is 1.99.
For `COc1ccc(NC(=O)Cc2cs/c(=N\c3ccccc3Cl)n2C)cc1`, the Activity was 1.98.
In the case of `Cn1c(CC(=O)Nc2ccc(Oc3ccccc3)cc2)cs/c1=N\c1cccc(Br)c1` it was 0.9; in that of `CCCCc1ccc(/N=c2/scc(CC(=O)Nc3ccc(CC)cc3)n2C)cc1`, 1.99.
As to `COc1ccc(NC(=O)Cc2cs/c(=N\c3ccc(C(F)(F)F)cc3)n2C)cc1`, the Activity turned out to be 1.99.
On to `CCCCc1ccc(NC(=O)Cc2cs/c(=N\c3cccc(F)c3)n2C)cc1`, for which the Activity came out at 1.
In the case of `Cn1c(CC(=O)Nc2ccc(OC(F)(F)F)cc2)cs/c1=N\c1cccc(Br)c1` it was 1.7; in that of `Cn1c(CC(=O)Nc2ccc(C#N)cc2)cs/c1=N\c1ccc(F)cc1F`, 1.23; in that of `Cc1ccc(NC(=O)Cc2cs/c(=N/c3ccc(F)cc3)n2C)cc1`, 1.96.
`CCCCOc1ccc(NC(=O)Cc2cs/c(=N/c3ccc(C(F)(F)F)cc3)n2C)cc1`: the Activity was 1.
For `CCc1ccc(NC(=O)Cc2cs/c(=N\c3ccc(C)cc3Br)n2C)cc1`, the Activity turned out to be 1.94.
`COc1ccc(NC(=O)Cc2cs/c(=N\c3ccc(Cl)cc3F)n2C)cc1`: the Activity is recorded as 1.97.
`Cn1c(CC(=O)Nc2ccc(Cl)cc2)cs/c1=N\c1ccc(OC(F)(F)F)cc1`: the Activity came to 1.82.
With `Cn1c(CC(=O)Nc2ccc(Oc3ccccc3)cc2)cs/c1=N/c1ccc(Br)cc1`, the Activity came out at 1.23.
As to `COc1ccc(NC(=O)Cc2cs/c(=N\c3ccc(C)c(F)c3)n2C)cc1`, the Activity was found to be 1.98.
In the case of `CCc1ccc(NC(=O)Cc2cs/c(=N/c3ccc(C#N)cc3)n2C)cc1` it was 1.92; in that of `Cn1c(CC(=O)Nc2ccc([N+](=O)[O-])cc2)cs/c1=N/c1ccc(C#N)cc1`, 0.7.
In the case of `CCCCc1ccc(/N=c2/scc(CC(=O)Nc3ccc([N+](=O)[O-])cc3)n2C)cc1` it was 1.11; in that of `CCc1ccc(NC(=O)Cc2cs/c(=N\c3ccc(Br)cc3F)n2C)cc1`, 2.
For `Cn1c(CC(=O)Nc2ccc(OC(F)(F)F)cc2)cs/c1=N/c1ccc(Cl)cc1`, the Activity is listed as 1.52.
Take `COc1ccc(NC(=O)Cc2cs/c(=N\c3ccc(OC)c(Cl)c3)n2C)cc1`: the Activity amounted to 1.98.
For the compound `CCc1ccc(NC(=O)Cc2cs/c(=N/c3ccc(-c4ccccc4)cc3)n2C)cc1`, the Activity is listed as 1.99.
Turning to `CCc1ccc(NC(=O)Cc2cs/c(=N/c3ccc(CC#N)cc3)n2C)cc1`, the Activity was determined as 2.

For the origin of these results see ChEMBL document CHEMBL1142346, “Quantitative structural-activity relationship (QSAR) study for fungicidal activities of thiazoline derivatives against rice blast” (2008).
